Experimental data: article PMC5218480 (PLoS ONE, 2017)

System: MV-4-11 cells
Assay: Gene expression microarray analysis (Affymetrix PrimeView) and GSEA
Format: cell-based, human
Design: RFU PODN (11730768_x_at) / Fold change /veh PODN (11730768_x_at) / RFU LINC00158 (11744669_a_at) / Fold change /veh LINC00158 (11744669_a_at) / RFU DUSP10 (11751237_a_at) / Fold change /veh DUSP10 (11751237_a_at) / RFU ID3 (11757404_x_at) / Fold change /veh ID3 (11757404_x_at) / RFU PLEKHG5 (11737974_s_at) / Fold change /veh PLEKHG5 (11737974_s_at) / RFU LRRC4B (11730491_at) / Fold change /veh LRRC4B (11730491_at) / RFU GIMAP4 (11747438_a_at) / Fold change /veh GIMAP4 (11747438_a_at) / RFU KRT8 (11758183_x_at) / Fold change /veh KRT8 (11758183_x_at) / RFU CNN1 (11734310_a_at) / Fold change /veh CNN1 (11734310_a_at) / RFU VPS37D (11726825_at) / Fold change /veh VPS37D (11726825_at) / RFU C10orf10 (11716522_x_at) / Fold change /veh C10orf10 (11716522_x_at) / RFU KIR2DL2 /// KIR2DL4 /// KIR2DL5A /// KIR2DL5B /// KIR2DS1 /// KIR2DS2 /// KIR2DS3 /// KIR2DS4 /// KIR3DL3 /// KIR3DL3 /// KIR3DS1 (11738374_at) / Fold change /veh KIR2DL2 /// KIR2DL4 /// KIR2DL5A /// KIR2DL5B /// KIR2DS1 /// KIR2DS2 /// KIR2DS3 /// KIR2DS4 /// KIR3DL3 /// KIR3DL3 /// KIR3DS1 (11738374_at) / RFU C1QL1 (11718748_at) / Fold change /veh C1QL1 (11718748_at) / RFU TMPRSS4 (11747572_a_at) / Fold change /veh TMPRSS4 (11747572_a_at) / RFU HAMP (11756126_x_at) / Fold change /veh HAMP (11756126_x_at) / RFU RNFT2 (11725882_a_at) / Fold change /veh RNFT2 (11725882_a_at) / RFU NR4A2 (11747474_a_at) / Fold change /veh NR4A2 (11747474_a_at) / RFU ABCC12 (11746883_a_at) / Fold change /veh ABCC12 (11746883_a_at) / RFU TMEM136 (11760407_x_at) / Fold change /veh TMEM136 (11760407_x_at) / RFU CLDN22 /// WWC2 (11732394_at) / Fold change /veh CLDN22 /// WWC2 (11732394_at) / RFU HLA-DPB1 (11760878_x_at) / Fold change /veh HLA-DPB1 (11760878_x_at) / RFU SPINT1 (11716480_a_at) / Fold change /veh SPINT1 (11716480_a_at) / RFU GAP43 (11754022_s_at) / Fold change /veh GAP43 (11754022_s_at) / RFU A4GNT (11735810_at) / Fold change /veh A4GNT (11735810_at) / RFU PRB3 (11715151_x_at) / Fold change /veh PRB3 (11715151_x_at) / RFU TUBB4B (11761932_at) / Fold change /veh TUBB4B (11761932_at) / RFU CAPN14 (11732068_a_at) / Fold change /veh CAPN14 (11732068_a_at) / RFU TMCC2 (11721928_a_at) / Fold change /veh TMCC2 (11721928_a_at) / RFU IRGQ (11745062_a_at) / Fold change /veh IRGQ (11745062_a_at) / RFU FAM174B (11720279_a_at) / Fold change /veh FAM174B (11720279_a_at) / RFU TMPRSS4 (11748680_a_at) / Fold change /veh TMPRSS4 (11748680_a_at) / RFU FAM212B (11763350_a_at) / Fold change /veh FAM212B (11763350_a_at) / RFU PLEKHG5 (11743358_a_at) / Fold change /veh PLEKHG5 (11743358_a_at) / RFU ZSCAN30 (11745921_a_at) / Fold change /veh ZSCAN30 (11745921_a_at) / RFU CMKLR1 (11741424_a_at) / Fold change /veh CMKLR1 (11741424_a_at) / RFU LOC101060620 /// MAPK8IP1 (11723275_at) / Fold change /veh LOC101060620 /// MAPK8IP1 (11723275_at) / RFU SPTSSB (11747773_x_at) / Fold change /veh SPTSSB (11747773_x_at) / RFU PRSS12 (11739890_at) / Fold change /veh PRSS12 (11739890_at) / RFU BIN1 (11741810_x_at) / Fold change /veh BIN1 (11741810_x_at) / RFU WNT11 (11732464_a_at) / Fold change /veh WNT11 (11732464_a_at) / RFU C10orf10 (11716521_a_at) / Fold change /veh C10orf10 (11716521_a_at) / RFU C5orf56 (11738089_at) / Fold change /veh C5orf56 (11738089_at) / RFU CYB561 (11721691_x_at) / Fold change /veh CYB561 (11721691_x_at) / RFU ANKRD19P (11752326_a_at) / Fold change /veh ANKRD19P (11752326_a_at) / RFU OR2T12 /// OR2T33 /// OR2T8 (11738714_s_at) / Fold change /veh OR2T12 /// OR2T33 /// OR2T8 (11738714_s_at) / RFU VCAN (11748164_a_at) / Fold change /veh VCAN (11748164_a_at) / RFU JSRP1 (11732532_at) / Fold change /veh JSRP1 (11732532_at) / RFU KRTAP10-11 (11738290_x_at) / Fold change /veh KRTAP10-11 (11738290_x_at) / RFU MYO3A (11730013_a_at) / Fold change /veh MYO3A (11730013_a_at) / RFU EBF3 (11725865_a_at) / Fold change /veh EBF3 (11725865_a_at) / RFU CAMK2N1 (11719241_x_at) / Fold change /veh CAMK2N1 (11719241_x_at) / RFU C5orf56 (11738088_a_at) / Fold change /veh C5orf56 (11738088_a_at) / RFU OLFML3 (11715873_a_at) / Fold change /veh OLFML3 (11715873_a_at) / RFU LOC100653217 /// NTM (11731650_a_at) / Fold change /veh LOC100653217 /// NTM (11731650_a_at) / RFU MAPK11 (11762145_a_at) / Fold change /veh MAPK11 (11762145_a_at) / RFU FIZ1 (11724087_x_at) / Fold change /veh FIZ1 (11724087_x_at) / RFU OASL (11726364_x_at) / Fold change /veh OASL (11726364_x_at) / RFU SOX15 (11748057_x_at) / Fold change /veh SOX15 (11748057_x_at) / RFU CD79A (11719716_a_at) / Fold change /veh CD79A (11719716_a_at) / RFU HIST1H1D (11736915_at) / Fold change /veh HIST1H1D (11736915_at) / RFU CASKIN2 (11723855_a_at) / Fold change /veh CASKIN2 (11723855_a_at) / RFU LOC730098 (11760151_x_at) / Fold change /veh LOC730098 (11760151_x_at) / RFU OR4N2 (11742367_at) / Fold change /veh OR4N2 (11742367_at) / RFU PRRT2 (11749266_a_at) / Fold change /veh PRRT2 (11749266_a_at) / RFU SNX32 (11753110_a_at) / Fold change /veh SNX32 (11753110_a_at) / RFU CDHR5 (11726645_a_at) / Fold change /veh CDHR5 (11726645_a_at) / RFU RCAN1 (11760418_a_at) / Fold change /veh RCAN1 (11760418_a_at) / RFU FAM167A (11723789_a_at) / Fold change /veh FAM167A (11723789_a_at) / RFU FAM26E (11764081_at) / Fold change /veh FAM26E (11764081_at) / RFU ISYNA1 (11749810_s_at) / Fold change /veh ISYNA1 (11749810_s_at) / RFU ACY1 (11761880_at) / Fold change /veh ACY1 (11761880_at) / RFU 11764098_at / Fold change /veh 11764098_at / RFU SAMD14 (11745864_x_at) / Fold change /veh SAMD14 (11745864_x_at) / RFU NPB (11741838_a_at) / Fold change /veh NPB (11741838_a_at) / RFU TMPRSS6 (11731388_a_at) / Fold change /veh TMPRSS6 (11731388_a_at) / RFU KRTAP10-2 (11738614_at) / Fold change /veh KRTAP10-2 (11738614_at) / RFU ARHGAP8 /// PRR5-ARHGAP8 (11727945_x_at) / Fold change /veh ARHGAP8 /// PRR5-ARHGAP8 (11727945_x_at) / RFU KRTAP5-7 /// NADSYN1 (11734609_at) / Fold change /veh KRTAP5-7 /// NADSYN1 (11734609_at) / RFU RASL12 (11751679_a_at) / Fold change /veh RASL12 (11751679_a_at) / RFU CDKN2B (11736163_a_at) / Fold change /veh CDKN2B (11736163_a_at) / RFU PRF1 (11729649_at) / Fold change /veh PRF1 (11729649_at) / RFU, ZNF638 /// ZNF638-IT1 / Fold change vs veh, ZNF638 /// ZNF638-IT1 / RFU, PANK3 / Fold change vs veh, PANK3 / RFU, SH3YL1 / Fold change vs veh, SH3YL1 / RFU, ZEB2 / Fold change vs veh, ZEB2 / RFU, NRIP1 / Fold change vs veh, NRIP1 / RFU, PTTG1IP / Fold change vs veh, PTTG1IP / RFU, CAPN2 / Fold change vs veh, CAPN2 / RFU, MED14 / Fold change vs veh, MED14 / RFU, SNORA58 / Fold change vs veh, SNORA58 / RFU, C1orf63 / Fold change vs veh, C1orf63 / RFU, LRRFIP1 / Fold change vs veh, LRRFIP1 / RFU, NDUFAF7 / Fold change vs veh, NDUFAF7 / RFU, SLC12A2 / Fold change vs veh, SLC12A2 / RFU, IBTK / Fold change vs veh, IBTK / RFU, ESF1 / Fold change vs veh, ESF1 / Fold change vs veh, TMEM50B / RFU, TAOK1 / Fold change vs veh, TAOK1 / RFU, ACBD3 / Fold change vs veh, ACBD3 / RFU, TMA16 / Fold change vs veh, TMA16 / RFU, RWDD3 / Fold change vs veh, RWDD3 / RFU, BCAT1 / Fold change vs veh, BCAT1 / RFU, EDEM3 / Fold change vs veh, EDEM3 / RFU, TMEM33 / Fold change vs veh, TMEM33 / RFU, WDR75 / Fold change vs veh, WDR75 / RFU, AHCTF1 / Fold change vs veh, AHCTF1 / RFU, TFRC / Fold change vs veh, TFRC / RFU, ZDHHC17 / Fold change vs veh, ZDHHC17 / RFU, NOM1 / Fold change vs veh, NOM1 / RFU, ARL8B / Fold change vs veh, ARL8B / RFU, ZBTB11 / Fold change vs veh, ZBTB11 / RFU, TAMM41 / Fold change vs veh, TAMM41 / RFU, KIAA1704 /// LOC100996395 / Fold change vs veh, KIAA1704 /// LOC100996395 / RFU, ING1 / Fold change vs veh, ING1 / RFU, TRMT61B / Fold change vs veh, TRMT61B / RFU, FUBP3 / Fold change vs veh, FUBP3 / RFU, TP53 / Fold change vs veh, TP53 / RFU, TNKS2 / Fold change vs veh, TNKS2 / RFU, ZFP14 / Fold change vs veh, ZFP14 / RFU, ACTR2 / Fold change vs veh, ACTR2 / RFU, PPP3R1 / Fold change vs veh, PPP3R1 / RFU, PIK3R1 / Fold change vs veh, PIK3R1 / RFU, HNRNPA1 / Fold change vs veh, HNRNPA1 / RFU, RNF170 / Fold change vs veh, RNF170 / RFU, ZNF28 / Fold change vs veh, ZNF28 / RFU, RNGTT / Fold change vs veh, RNGTT / RFU, OGT / Fold change vs veh, OGT / RFU, BRD1 / Fold change vs veh, BRD1 / RFU, MARS / Fold change vs veh, MARS / RFU, ZNF655 / Fold change vs veh, ZNF655 / RFU, FAHD1 / Fold change vs veh, FAHD1 / RFU, BDP1 / Fold change vs veh, BDP1 / RFU, LRRCC1 / Fold change vs veh, LRRCC1 / RFU, ARID1A / Fold change vs veh, ARID1A / RFU, ZNF146 / Fold change vs veh, ZNF146 / RFU, ZNF330 / Fold change vs veh, ZNF330 / RFU, GPN3 / Fold change vs veh, GPN3 / RFU, C9orf123 / Fold change vs veh, C9orf123 / RFU, N4BP2L2 / Fold change vs veh, N4BP2L2 / RFU, ARFIP1 / Fold change vs veh, ARFIP1 / RFU, FAM179B / Fold change vs veh, FAM179B / RFU, BCL10 / Fold change vs veh, BCL10 / RFU, UHRF1BP1L / Fold change vs veh, UHRF1BP1L / RFU, BET1 / Fold change vs veh, BET1 / RFU, CNOT2 / Fold change vs veh, CNOT2 / RFU, ZNF268 / Fold change vs veh, ZNF268 / Fold change vs veh, ZNF507 / RFU, DGCR2 / Fold change vs veh, DGCR2 / RFU, WDSUB1 / Fold change vs veh, WDSUB1 / Fold change vs veh, HSP90B1 /// MIR3652 / RFU, ADSS / Fold change vs veh, ADSS / RFU, GK / Fold change vs veh, GK / RFU, ZNF148 / Fold change vs veh, ZNF148 / RFU, TAF9 / Fold change vs veh, TAF9 / RFU, SLC1A5 / Fold change vs veh, SLC1A5 / RFU, SLMO2 / Fold change vs veh, SLMO2 / RFU, ABCC4 / Fold change vs veh, ABCC4 / RFU, LOC101060439 /// RAP1B / Fold change vs veh, LOC101060439 /// RAP1B / RFU, RFX7 / Fold change vs veh, RFX7 / RFU, GTPBP10 / Fold change vs veh, GTPBP10 / RFU, CNEP1R1 / Fold change vs veh, CNEP1R1 / RFU, BIVM-ERCC5 /// ERCC5 / Fold change vs veh, BIVM-ERCC5 /// ERCC5 / RFU, ILF3 / Fold change vs veh, ILF3 / RFU 11762660_at / Fold change /veh 11762660_at / RFU VCAN (11757783_s_at) / Fold change /veh VCAN (11757783_s_at) / RFU DDX43 (11728927_at) / Fold change /veh DDX43 (11728927_at) / RFU KRT8 (11758188_x_at) / Fold change /veh KRT8 (11758188_x_at) / RFU NKD1 (11759106_at) / Fold change /veh NKD1 (11759106_at) / RFU SRD5A1 (11742802_a_at) / Fold change /veh SRD5A1 (11742802_a_at) / RFU TPSAB1 /// TPSB2 (11721975_s_at) / Fold change /veh TPSAB1 /// TPSB2 (11721975_s_at) / RFU GSTM3 (11746129_a_at) / Fold change /veh GSTM3 (11746129_a_at) / RFU IL23R (11737362_x_at) / Fold change /veh IL23R (11737362_x_at) / RFU TMEM51 (11727254_a_at) / Fold change /veh TMEM51 (11727254_a_at) / RFU PIWIL2 (11732686_x_at) / Fold change /veh PIWIL2 (11732686_x_at) / RFU ORM1 (11744905_x_at) / Fold change /veh ORM1 (11744905_x_at) / RFU CCDC152 (11743942_at) / Fold change /veh CCDC152 (11743942_at) / RFU ECM1 (11717891_a_at) / Fold change /veh ECM1 (11717891_a_at) / RFU IL23R (11748794_a_at) / Fold change /veh IL23R (11748794_a_at) / RFU TNFAIP8L3 (11732012_x_at) / Fold change /veh TNFAIP8L3 (11732012_x_at) / RFU MBOAT4 (11741988_at) / Fold change /veh MBOAT4 (11741988_at) / RFU 11764193_at / Fold change /veh 11764193_at / RFU TMEM53 (11763286_at) / Fold change /veh TMEM53 (11763286_at) / RFU MAGEB2 (11727129_at) / Fold change /veh MAGEB2 (11727129_at) / RFU TMEM200A (11744735_a_at) / Fold change /veh TMEM200A (11744735_a_at) / RFU CCDC152 (11751479_a_at) / Fold change /veh CCDC152 (11751479_a_at) / RFU FAM211A (11726209_a_at) / Fold change /veh FAM211A (11726209_a_at) / RFU RGS16 (11746705_a_at) / Fold change /veh RGS16 (11746705_a_at) / RFU VCAN (11755009_s_at) / Fold change /veh VCAN (11755009_s_at) / RFU RHOB (11743442_s_at) / Fold change /veh RHOB (11743442_s_at) / RFU RGS16 (11720943_a_at) / Fold change /veh RGS16 (11720943_a_at) / RFU RGS16 (11720944_at) / Fold change /veh RGS16 (11720944_at) / RFU, VPS4B / Fold change vs veh, VPS4B / RFU, CREB1 / Fold change vs veh, CREB1 / RFU, DNAJC13 / Fold change vs veh, DNAJC13 / RFU, GNAQ / Fold change vs veh, GNAQ / RFU, CDK5R1 / Fold change vs veh, CDK5R1 / RFU, ZRANB3 / Fold change vs veh, ZRANB3 / RFU, CUL4A / Fold change vs veh, CUL4A / RFU, CCNY / Fold change vs veh, CCNY / RFU, UFL1 / Fold change vs veh, UFL1 / RFU, COG3 / Fold change vs veh, COG3 / RFU, DIAPH2 / Fold change vs veh, DIAPH2 / RFU, SKA2 / Fold change vs veh, SKA2 / RFU, AFF3 / Fold change vs veh, AFF3 / RFU, LMF1 / Fold change vs veh, LMF1 / RFU, IPO11 / Fold change vs veh, IPO11 / RFU, DFFB / Fold change vs veh, DFFB / RFU, FOXP1 / Fold change vs veh, FOXP1 / RFU, CARD8 / Fold change vs veh, CARD8 / RFU, STRN3 / Fold change vs veh, STRN3 / RFU, ADK / Fold change vs veh, ADK / RFU, RASSF2 / Fold change vs veh, RASSF2 / RFU, WIPF1 / Fold change vs veh, WIPF1 / RFU, LARP1B / Fold change vs veh, LARP1B / RFU, RASA1 / Fold change vs veh, RASA1 / RFU, RB1 / Fold change vs veh, RB1 / RFU, PPFIA1 / Fold change vs veh, PPFIA1 / RFU, MAT2A / Fold change vs veh, MAT2A / RFU, CCT5 / Fold change vs veh, CCT5 / RFU, WDR92 / Fold change vs veh, WDR92 / RFU, CUX1 / Fold change vs veh, CUX1 / RFU, TTC7A / Fold change vs veh, TTC7A / RFU, TMEM135 / Fold change vs veh, TMEM135 / RFU, DEPTOR / Fold change vs veh, DEPTOR / RFU, CPM / Fold change vs veh, CPM / RFU, DNAJB6 / Fold change vs veh, DNAJB6 / RFU, CACNA2D3 / Fold change vs veh, CACNA2D3 / RFU, DTX4 / Fold change vs veh, DTX4 / RFU, TFCP2 / Fold change vs veh, TFCP2 / RFU, GMCL1 /// GMCL1P1 / Fold change vs veh, GMCL1 /// GMCL1P1 / RFU, AEBP2 / Fold change vs veh, AEBP2 / RFU, SNHG1 /// SNORD22 /// SNORD25 /// SNORD26 /// SNORD27 /// SNORD28 /// SNORD29 /// SNORD31 / Fold change vs veh, SNHG1 /// SNORD22 /// SNORD25 /// SNORD26 /// SNORD27 /// SNORD28 /// SNORD29 /// SNORD31 / Fold change (Aza/veh), C12orf56 (ProbeSet 11735607_a_at) / Fold change (ACY-1035/veh), C12orf56 (ProbeSet 11735607_a_at) / Fold change (Aza/veh), FGFR1OP (ProbeSet 11751329_s_at) / Fold change (ACY-1035/veh), FGFR1OP (ProbeSet 11751329_s_at) / Fold change (Aza/veh), VPS36 (ProbeSet 11739960_a_at) / Fold change (ACY-1035/veh), VPS36 (ProbeSet 11739960_a_at) / RFU SYPL1 (11715823_x_at) / Fold change /veh SYPL1 (11715823_x_at) / RFU IGFBP7 (11715501_s_at) / Fold change /veh IGFBP7 (11715501_s_at) / RFU REEP3 (11722064_at) / Fold change /veh REEP3 (11722064_at) / RFU IGLL1 (11728026_x_at) / Fold change /veh IGLL1 (11728026_x_at): dose or concentration left out as unconfirmed
Conditions: ProbeSet 11732281_s_at; LIST D

In the case of Nc1ncn([C@@H]2O[C@H](CO)[C@@H](O)[C@H]2O)c(=O)n1 [azacitidine], the “Fold change vs veh, FOXP1” value is reported as 0.63.
